Reference: patent US8268789B2, “PAR-2 antagonists” (Kowa Company, Ltd., priority 2004, dated 2012)
Read-outs that look alike come from different tables or passages of the source.

Molecular target: T1, PAR-2 (Homo sapiens, UniProt P55085)
T1 construct: intracellular Ca^2+ level change by PAR-2 agonist in human keratinocytes expressing PAR-2; host or cells: primary human keratinocytes, passage 3 to 5
T1 sequence (P55085 26-397): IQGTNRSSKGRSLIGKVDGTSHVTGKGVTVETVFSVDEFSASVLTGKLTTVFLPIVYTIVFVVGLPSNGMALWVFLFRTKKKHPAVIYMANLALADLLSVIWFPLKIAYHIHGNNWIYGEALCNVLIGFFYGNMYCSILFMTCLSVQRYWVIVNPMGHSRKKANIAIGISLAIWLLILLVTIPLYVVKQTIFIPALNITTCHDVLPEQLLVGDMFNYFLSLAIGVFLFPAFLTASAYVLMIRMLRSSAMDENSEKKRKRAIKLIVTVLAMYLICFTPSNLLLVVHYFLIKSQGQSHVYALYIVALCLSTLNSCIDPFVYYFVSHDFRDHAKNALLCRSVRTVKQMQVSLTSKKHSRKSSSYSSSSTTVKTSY
Test: Assay of intracellular Ca2+ level in human keratinocytes stimulated with PAR-2 agonist peptide
Format: cell-based
Settings: for inhibition at 10 µg/mL: read-out: Inhibition Rate (%) (Means ± Standard Error, n = 3)
Experimental: The keratinocytes were subjected to passage culture with trypsin/EDTA, and the cells whose passage number was 3 to 5 were used in the experiment.
Flex Station Calcium assay kit 2, which is a fluorescent reagent kit for calcium assay, was purchased from Molecular Devices and used in reagent preparation according to an accompanying protocol. Probenecid, Calcium ionophore (A23187) was purchased from Sigma. The human keratinocytes were seeded at a density of 40,000 cells/well to a 96-well black-well clear-bottom plate (Corning) and cultured for 24 hours until the cells became subconfluent. After washing once with KBM, 80 μl KBM was added to each well. Subsequently, a fluorescent dye solution containing an equal volume of Probenecid at a final concentration of 2 mM (HBSS solution, pH 7.4) was added to each well and incubated at 37° C. for 1 hour. Thereafter, the plate was left for 15 minutes at room temperature and assayed at room temperature (25° C.). The test chemical and the stimulants were prepared by diluting KBM having 10-fold concentration of a final concentration respectively which were then added in a volume of 20 μL respectively for assay. Measurement was carried out with a fluorescent plate reader FlexStation (Molecular Devices) compatible with a 96-well plate equipped with an injector. The measurement through the bottom was carried out for 180 seconds at 2-second intervals at an excitation wavelength of 475 nm and at a measurement wavelength of 525 nm. The chemical was added 17 seconds after the measurement was initiated.

[1] = compound final concentration 10 μg/mL, PAR-2 agonist SLIGKV 10 μM, cultured human keratinocytes, (1-AUCantagonist/AUCcontrol)×100 of time-fluorescence intensity curve

Row | Structure (SMILES) | inhibition at 10 µg/mL [1] [%] | PAR-2 inhibitory action (inhibition of the agonist-induced increase in intracellular Ca2+ level), in words (compound final concentration 10 μg/mL, SLIGKV 10 μM, human keratinocytes, FIG. 1) | inhibition at 10 µg/mL [%]
1 | CC(C)n1ccc2cc(NC(=O)NCC(=O)N[C@@H](CCN)C(=O)N[C@@H](Cc3ccccc3)C(=O)NCc3ccccc3)ccc21 [Example 24, [[N-isopropyl-1H-indol-5-yl]aminocarbonyl]-glycine-L-α,γ-diaminobutyrate-L-phenylalanine-N-benzylamide] | 15.1 ± 10.5 |  | 
2 | NCCCC[C@H](NC(=O)CNC(=O)Nc1ccc2c(c1)c(CN1CCCC1)cn2Cc1c(Cl)cccc1Cl)C(=O)N[C@@H](Cc1ccccc1)C(=O)NC(c1ccccc1)c1ccccc1 [Example 10, [[N-[1-(2,6-dichlorophenyl)methyl]-3-(1-pyrrolidinylmethyl)-1H-indol-5-yl]aminocarbonyl]-glycine-L-lysine-L-phenylalanine-N-benzhydrylamide] |  | inhibition was recognized | 58.4 ± 13
3 | CN1CCN(Cc2cn(Cc3c(Cl)cccc3Cl)c3ccc(NC(=O)NCC(=O)N[C@@H](CCCCN)C(=O)N[C@@H](Cc4ccccc4)C(=O)NC(c4ccccc4)c4ccccc4)cc23)CC1 [Example 12, [[N-[1-(2,6-dichlorophenyl)methyl]-3-[1-(4-methylpiperazinyl)methyl]-1H-indol-5-yl]aminocarbonyl]-glycine-L-lysine-L-phenylalanine-N-benzhydrylamide] | 52.2 ± 1.8 |  | 

More lines, main results first:

Row | inhibition at 10 µg/mL [1] [%] | Structure (SMILES) | PAR-2 inhibitory action (inhibition of the agonist-induced increase in intracellular Ca2+ level), in words (compound final concentration 10 μg/mL, SLIGKV 10 μM, human keratinocytes, FIG. 1) | inhibition at 10 µg/mL [%]
4 | 32 ± 2.3 | NCC[C@H](NC(=O)CNC(=O)Nc1ccc2c(c1)c(CN1CCCC1)cn2Cc1c(Cl)cccc1Cl)C(=O)N[C@@H](Cc1ccccc1)C(=O)NC(c1ccccc1)c1ccccc1 [Example 11, [[N-[1-(2,6-dichlorophenyl)methyl]-3-(1-pyrrolidinylmethyl)-1H-indol-5-yl]aminocarbonyl]-glycine-L-α,γ-diaminobutyrate-L-phenylalanine-N-benzhydrylamide] |  | 
5 | 33.6 ± 16.8 | NCC[C@H](NC(=O)CNC(=O)Nc1ccc2c(c1)c(CN1CCCC1)cn2Cc1c(Cl)cccc1Cl)C(=O)N[C@@H](Cc1ccccc1)C(=O)NCc1ccccc1 [Example 20, [[N-[1-(2,6-dichlorophenyl)methyl]-3-(1-pyrrolidinylmethyl)-1H-indol-5-yl]aminocarbonyl]-glycine-L-α,γ-diaminobutyrate-L-phenylalanine-N-benzylamide] |  | 
6 | 14.2 ± 10 | NCCCC[C@H](NC(=O)CNC(=O)Nc1ccc2c(c1)c(CN1CCCC1)cn2Cc1c(Cl)cccc1Cl)C(=O)N[C@@H](Cc1ccccc1)C(=O)NCc1ccccc1 [Example 21, [[N-[1-(2,6-dichlorophenyl)methyl]-3-(1-pyrrolidinylmethyl)-1H-indol-5-yl]aminocarbonyl]-glycine-L-lysine-L-phenylalanine-N-benzylamide] |  | 
